This test has as its system Mycobacterium tuberculosis variant bovis. The test is described as follows: Antimycobacterial activity against Mycobacterium bovis BCG ATCC 35734 assessed as bacterial growth inhibition incubated for 15 days by resazurin based reduction assay. To be noted: BCG ATCC 35734, 360 h, time 15 day. In kind it is functional. (The colour change of resazurin is a common sign of viable cells or microbes.)

Structures are written as SMILES.

On to `COc1cc([C@](O)(CCN(C)C)[C@@H](c2cc3cc(Br)ccc3nc2OC)c2cccc(OC)c2F)cc(OC)n1` [TBAJ-587], for which the MIC50 (usually the lowest concentration that inhibits either 50% of growth or 50% of the strains tested, depending on the study) is under 6 ng/mL.

(Values after ChEMBL document CHEMBL5614415, “Recent advances and challenges of revolutionizing drug-resistant tuberculosis treatment” (Eur J Med Chem, 2024).)
